Literature values as cited in patent US20120046286A1, “Novel Compounds” (priority 2009, published 2012).

Assays:
neutrophils [1] = details: treatment of neutrophils; Thelen et al. 1994
neutrophils [2] = tested on: neutrophils

SMILES	effect on fMLP-induced respiratory burst response (neutrophils [1])	effect on neutrophil migration and superoxide release (neutrophils [2])
COC[C@H]1OC(=O)c2coc3c2[C@@]1(C)C1=C(C3=O)[C@@H]2CCC(=O)[C@@]2(C)C[C@H]1OC(C)=O [wortmannin]	prevents the fMLP-induced respiratory burst response	block neutrophil migration and superoxide release
O=c1cc(N2CCOCC2)oc2c(-c3ccccc3)cccc12 [LY294002]		block neutrophil migration and superoxide release
